How the values were obtained:
[1] = aggregation on addition of dextran: turbidity at 800 nm; assay type: physicochemical; settings: dextran
Procedure: The precipitation of the vesicles was dispersed again to be 5 wt %, and thereto dextran (molecular weight of 40000) was added as a colloid osmotic pressure controller. The stability of the dispersion was observed by determination of turbidity at 800 nm.
The stability of the MPDSPE-modified vesicle was evaluated by adding, to the above dispersion, dextran (molecular weight: 4000) which is a colloid osmotic pressure controller, and measuring the turbidity from the absorbance at 800 nm. […] This proves the aggregation inhibition effect of the MPDSPE of the vesicle stabilizer of the present invention.
The resulting dispersion was treated with a microfluidizer at 2500 psi at 4° C. for 15 minutes to obtain a dispersion of SDSPE-modified vesicles having average particle diameter of 350±95 nm. This dispersion was centrifuged (100000 G, 30 minutes) to obtain a precipitate of vesicles. The precipitate was dispersed again into a solution to be 5% by weight. Occurrence of aggregation of the vesicles was tested by adding dextran (molecular weight 40000) to the dispersion and measuring the turbidity change at 800 nm. […] Therefrom the modification was confirmed to be effective to inhibition of aggregation caused by dextran.
5.0 g of a powdery lipid mixture containing the above STEC (DPPC:cholesterol:stearic acid:STEC=7:7:2:2 in molar ratio) was dispersed in 100 ml of saline, and the dispersion was stirred at 4° C. for 24 hours. The resulting dispersion was treated with a microfluidizer at 2500 psi at 4° C. for 15 minutes. This dispersion was centrifuged (10000 G, 30 minutes) to obtain precipitate of STEC-modified vesicles. The precipitate was dispersed again in to saline to be 5 wt %. The stability of the vesicles was evaluated by adding 2.5 wt % solution of dextran (molecular weight 40000) to the above vesicle layer and measuring the turbidity change at 800 nm. The STEC-modified vesicles caused the turbidity increase of 58% of that of the unmodified vesicles (DPPC:cholesterol:stearic acid=7:7:2 in molar ratio), thereby the inhibition effect of STEC, a vesicle stabilizer of the present invention being confirmed.

[2] = particle diameter of modified vesicles; assay type: physicochemical
[3] = introduction ratio into mixed lipid vesicles; assay type: physicochemical
Procedure: (§1) The ratio of introduction of the stabilizer into the vesicles is determined by treating the dispersion of the vesicles by gel filtration or ultracentrifuge to remove the superfluous stabilizer which has not been introduced into the vesicles, and quantitatively determining saccharide in respective fractions by a phenol-sulfuric acid method. The stabilizer of the present invention, when employed in an amount of from 2 to 10 mol %, is introduced into the vesicles in a ratio of 90% or more.
The effect of the LPMS of the present invention on stabilization of vesicles was evaluated as follows. A powdery lipid mixture containing LPMS was prepared from dimyristoyl phosphatidylcholine, cholesterol, myristic acid, and LPMS (in molar ratio of 7:7:2:0.3) was prepared by freeze-drying. 100 ml of saline was added to 10 g of the above powdery lipid mixture, and the mixture was stirred at 4° C. for 24 hours to prepare a liquid dispersion. […] The introduction ratio of the LPMS was 85% according to saccharide determination of the supernatant liquid after centrifugation.
500 mg of a powdery lipid mixture containing MPDSG of the present invention was prepared from DPPC, cholesterol, distearyl phosphatidic acid, and MPDSG (in molar ratio of 10:9:0.9:0.5) was prepared by freeze-drying from benzene. […]

[4] = turbidity increase of copolymerized vesicle dispersion, 4 °C for 24 hours; assay type: physicochemical; settings: before fivefold dilution
[5] = introduction ratio of ODM into DODPC vesicles; assay type: physicochemical
Procedure: Polymerizable 2,4-octadecadienyl-0-α(β)-maltose (hereinafter referred to as "ODM") was prepared from maltose and 2,4-octadecadienol according to the method shown in Example 11. A solution of 2.0 mg of this ODM in 1 ml of chloroform was mixed with a solution of 200 mg of di(2,4-octadecadienoyl)phosphatidylcholine (hereinafter referred to as "DODPC") as a polymerizable lipid in 5 ml of chloroform. The mixture was evaporated by a rotary evaporator to form a thin film on a wall of an eggplant-shape flask. 20 ml of pure water was added thereto, and agitated with glass beads by a vortex mixer. The resulting ODM-modified vesicle dispersion was treated by an extruder to prepare a dispersion of nearly uniform particle diameters. The vesicle dispersion was irradiated with γ-ray to copolymerize the ODM and the polymerizable lipid, DODPC. A portion of the irradiated dispersion was diluted fivefold with pure water and was left standing at 4° C. for 24 hours. The introduction ratio of ODM was measured by centrifuging the diluted and undiluted dispersions (300000 G, 60 minutes) respectively and determining the ODM in the supernatant by a phenol-sulfuric acid method.

[6] = introduction ratio into the vesicle (phenol-sulfuric acid method); assay type: physicochemical; settings: 3 mg MPDSG per 100 mg DPPC; dispersion diluted to 0.5% by weight, gel filtration
Procedure: as §1
(§2) The stability of the vesicle dispersion which had been passed through the 0.05 μm filter was evaluated by measuring the change of absorbance (turbidity) at 500 nm with time on standing at room temperature by means of a UV-visible light spectrophotometer.
2.4 mg of DOMG prepared in the same manner as in Example 11 was dissolved in 1 ml of chloroform. This solution was mixed with a solution of 100 mg of DPPC in 5 ml of chloroform, thereby DOMG being 2 mol % of DPPC. The solution mixture was evaporated by means of an evaporator to form a thin film on the inside wall of an eggplant-shape flask. Then 10 ml of pure water was added thereto so as to obtain a concentration of 1.0% by weight of the vesicles. The mixture was stirred with glass beads by means of a vortex mixer, and subsequently treated by an extruder to prepare a dispersion of DOMG-modified DPPC vesicles having controlled diameters of particles. A portion of the resulting dispersion was diluted to a fivefold volume with pure water to prepare a dispersion having vesicle concentration of 0.2% by weight.
The two dispersions of the DOMG-modified vesicles having concentrations of 1.0% by weight and 0.2% by weight were left standing at 4° C. for 24 hours, and were ultracentrifuged (300000 G, 60 minutes). The free DOMG in the supernatant was determined by a phenol-sulfuric acid method, and therefrom the ratio of introduction DOMG to the vesicles was calculated.
As the results, the introduction ratios were 94.3%, and 77.0% respectively at the vesicle concentrations of 1.0% by weight and 0.2% by weight. The results are shown in Table 4 together with the results of Comparative Examples 6 and 7 described later in which an oligosaccharide derivative was employed.

[7] = tested on: washed human RBC (red blood cell); settings: washed red blood cells, 2 h, pH 7.4
[8] = rat, in vivo
[9] = change of turbidity at 500 nm with time on standing at room temperature (FIG. 1); assay type: physicochemical; settings: 0.5% by weight
Procedure: The dispersion stability of the vesicle is evaluated by measuring the change with time of the absorbance (turbidity) with a spectrophotometer at a wavelength of 500 to 800 nm of the gel-filtered dispersion which is left standing at room temperature. Otherwise, the dispersion stability of the vesicle can be measured by the viscosity of the vesicle dispersion with a rotating viscometer, or microscopic observation by electron microscopy.
The ability of the oligosaccharide lipid of the present invention, namely of MPDSG, for stabilizing a vesicle was evaluated as follows. 3 mg of MPDSG and 100 mg of dipalmitoyl phosphatidylcholine (hereinafter referred to "DPPC") as a phospholipid were dissolved in methanol. The methanol was evaporated by use of a rotary evaporator to form a thin film on the inside wall of an eggplant shape flask. Thereto, 5 ml of pure water and several glass beads were added, and the content of the flask was agitated at 60° C. by means of a vortex mixer to form a whitish turbid liquid. This whitish turbid liquid was treated with an extruder. […]
as §2

[10] = viscosity of vesicle dispersion on addition of calcium ion (rotating viscometer); assay type: physicochemical; settings: 5 mM calcium chloride
Procedure: The stability of the vesicles was evaluated as below. The precipitate of the vesicles prepared by centrifuge was dispersed again into saline by a vortex mixer. To this sample, calcium chloride (as calcium ion) was added to be 5 mM, and the viscosity of the dispersion was measured with a rotating viscometer (Vismetron VS-AK). The viscosity of 5 cp was not changed by addition of the calcium ion.
To this dispersion, calcium chloride (as calcium ion) was added to be 5 mM, and the viscosity of the dispersion was measured with a rotating viscometer (Vismetron VS-AK).
To this dispersion, calcium chloride (as calcium ion) was added to be 5 mM, and the viscosity of the dispersion was measured with a rotating viscometer (Vismetron VS-AK). The viscosity of 5 cp was not changed by addition of the calcium ion. On the contrary, the dispersion of the vesicles prepared from powdery lipid mixture not containing DACOA (DPPC:cholesterol:distearylphosphatidic acid=10:9:0.9 in molar ratio) aggregated immediately on addition of calcium ion because of negative charge on the surface of the vesicle, causing the viscosity rise up to 11 cp.
The stability of the dispersion of the DOLG-modified vesicles having adjusted particle diameters was evaluated by addition of 5 mM calcium chloride and observing the viscosity change. The viscosity was measured at 37° C. by a rotating viscometer. […] On the contrary, a dispersion of unmodified vesicles prepared from a powdery lipid mixture containing no DOLG (DPPC:cholesterol:stearic acid=7:7:2 in molar ratio) caused immediate aggregation of the vesicles on addition of calcium ion in the same manner as above because of the negative charge on the surface of the vesicle, and the viscosity increased up to 11 cp. Accordingly, the sufficient effect of the DOLG, a vesicle stabilizer of the present invention, was confirmed in inhibiting the aggregation of vesicles by calcium ion.

[11] = mixed lipid vesicles, microfluidizer

## CCCCCCCCCCCCCCCCCCOC1O[C@H](CO)[C@@H](O)[C@H](O[C@@H]2O[C@H](CO)[C@@H](O)[C@H](O[C@@H]3O[C@H](CO)[C@@H](O)[C@H](O[C@@H]4O[C@H](CO)[C@@H](O)[C@H](O[C@@H]5O[C@H](CO)[C@@H](O)[C@H](O)[C@H]5O)[C@H]4O)[C@H]3O)[C@H]2O)[C@H]1O (stereo partly shown) [LPMS, laminaripentaose monostearyl ether]
[1]
  turbidity change on addition of dextran (in words): did not give turbidity increase
[2]; [11]
  average diameter: 300±130 nm
[3]; dimyristoyl phosphatidylcholine:cholesterol:myristic acid:LPMS 7:7:2:0.3
  introduction ratio: 85%

## CCCCCCCCCCCCCCCCCC(=O)OCC(COP(=O)(O)OCCNC(=O)[C@H](O)[C@@H](O)[C@H](O[C@H]1O[C@H](CO)[C@@H](O[C@H]2O[C@H](CO)[C@@H](O[C@H]3O[C@H](CO)[C@@H](O[C@H]4O[C@H](CO)[C@@H](O)[C@H](O)[C@H]4O)[C@H](O)[C@H]3O)[C@H](O)[C@H]2O)[C@H](O)[C@H]1O)[C@H](O)CO)OC(=O)CCCCCCCCCCCCCCCCC (stereo partly shown) [MPDSPE, Maltopentaose distearoyl phosphatidyl ethanolamide]
[1]
  turbidity change on addition of dextran (in words): did not show turbidity rise
[2]; [11]
  average diameter: 320±115 nm

## CCCCCCCCCCCCCC=CC=CCOC1O[C@H](CO)[C@@H](O[C@H]2O[C@H](CO)[C@@H](O)[C@H](O)[C@H]2O)[C@H](O)[C@H]1O (stereo partly drawn) [ODM, 2,4-octadecadienyl-0-α(β)-maltose]
[4]
  turbidity increase relative to unmodified vesicles: 10.9%
[5]; copolymerized by γ-ray, both diluted (fivefold) and undiluted dispersions
  introduction ratio of ODM: 94.2%
[5]; not copolymerized, after fivefold dilution
  introduction ratio of ODM: 66.9%
[5]; not copolymerized, before fivefold dilution
  introduction ratio of ODM: 93.8%

## CCCCCCCCCCCCCCCCCC(=O)OCC(COP(=O)(O)OCCNC(=O)[C@H](O)[C@@H](O)[C@H](O[C@@H]1O[C@H](CO)[C@@H](O)[C@H](O)[C@H]1O)[C@H](O)CO)OC(=O)CCCCCCCCCCCCCCCCC (stereo partly shown) [SDSPE, cellobiose distearoylphosphatidyl ethanolamine]
[1]
  turbidity change on addition of dextran (in words): little rise of turbidity
[2]; [11]
  average diameter: 350±95 nm

## maltopentaose distearyl glycerol [MPDSG]
[6]
  introduction ratio into the vesicle: 99%
[7]
  hemolysis: 5%
[8]
  average half-life from the blood stream: 38 h
[2]; DPPC vesicle, 0.05 μm extruder, particle size analyzer
  average diameter: 57±12 nm
[2]; DPPC vesicle, 0.05 μm extruder, transmission electron microscope with negative stain
  average diameter: 55±10 nm
[2]; hemoglobin-enclosing vesicles after 0.2 μm extrusion and gel filtration
  average particle diameter: 203±50 nm
[2]; hemoglobin-enclosing vesicles, microfluidizer, before 0.2 μm extrusion
  average diameter: 300±98 nm
[2]; mixed lipid vesicles, 0.2 μm filter by extruder
  average particle diameter: 200 nm
[9]
  inhibition of aggregation (in words): little turbidity increase later, showing the inhibition of the aggregation
  turbidity rise in comparison with that of the unmodified vesicle: about 7%
[3]; DPPC:cholesterol:distearyl phosphatidic acid:MPDSG 10:9:0.9:0.5
  introduction ratio: 98%
[10]
  inhibition of aggregation of vesicles by calcium ion (in words): inhibited nearly completely
  viscosity change on addition of calcium ion (in words): not changed
[10]; Vismetron VS-AK
  viscosity of the dispersion with calcium ion: 5 cp

Source: US5472951A, “Stabilizer for phospholipid vesicles” (Chiba Flour Milling Co., Ltd., priority 1992, dated 1995)
